≈ marks a conversion by molar mass, not a printed value. Each block holds one compound with its values, some of them ahead of it. Calls of active or inactive are those of the source. The calls are words filed in the database; no cut-off is given here.
Assays:
[1] = target: Peptidyl-prolyl cis-trans isomerase NIMA-interacting 1 (Homo sapiens, UniProt Q13526); experiment: Inhibition of Pin1 (unknown origin)
[2] = Aqueous solubility of the compound; assay type: physicochemical; conditions: buffer
[3] = Lipophilicity, log P of the compound; assay type: physicochemical; conditions: octanol/water
[4] = Dissociation constant, pKa of the compound; assay type: physicochemical
HT-29 [5] = experiment: Antiproliferative activity against human HT-29 cells; assay type: functional, cell-based
HT-29 [6] = experiment: Cell cycle arrest in human HT-29 cells assessed as cells accumulation at G0/G1 phase at 50 uM by FACS analysis (reference value: 56.9%); assay type: functional
HT-29 [7] = experiment: Cell cycle arrest in human HT-29 cells assessed as cells accumulation at S phase at 50 uM by FACS analysis (reference value: 37%); assay type: functional
HT-29 [8] = experiment: Cell cycle arrest in human HT-29 cells assessed as cells accumulation at G2/M phase at 50 uM by FACS analysis (reference value: 6.2%); assay type: functional
HT-29 [9] = experiment: Cell cycle arrest in human HT-29 cells assessed as cells accumulation at sub G1 phase at 50 uM by FACS analysis (Rvb =<1%); assay type: functional
HT-29 [10] = experiment: Induction of histological changes in human HT-29 cells assessed as fragmented phenotype at 50 uM by DAPI staining; assay type: functional, cell-based

Peptidyl-prolyl cis-trans isomerase NIMA-interacting 1, sequence (Q13526 whole entry): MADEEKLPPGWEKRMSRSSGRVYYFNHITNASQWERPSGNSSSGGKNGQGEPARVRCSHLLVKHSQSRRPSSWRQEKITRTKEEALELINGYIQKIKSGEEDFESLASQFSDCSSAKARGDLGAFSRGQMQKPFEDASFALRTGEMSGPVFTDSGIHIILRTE

Ki [1]: 780 nM
Structure (SMILES): Cc1ccc2[nH]c(C[C@@H](NC(=O)c3ccc4ccccc4c3)C(=O)O)nc2c1

Ki [1]: 138 nM | solubility [2]: > 120 µg/mL | logP [3]: 2.59 | pKa [4]: 3.92
Structure (SMILES): O=C(N[C@H](Cc1cc2ccc(F)cc2[nH]1)C(=O)O)c1ccc2ccccc2c1

Ki [1]: 12 nM | solubility [2]: > 100 µg/mL | logP [3]: 3.6 | pKa [4]: 3.9
Structure (SMILES): O=C(CC1c2ccccc2-c2ccccc21)N[C@H](Cc1cc2ccc(F)cc2[nH]1)C(=O)O

Ki [1]: 580 nM | IC50 (HT-29 [5]): 1900 nM
Structure (SMILES): O=C(O)C1(Cc2cc3ccc(F)cc3[nH]2)CSC(/C=C/c2c(Cl)cccc2Cl)=N1 (racemic)

Ki [1]: 320 nM | IC50 (HT-29 [5]): 4200 nM
Structure (SMILES): O=C(O)C1(Cc2cc3ccc(F)cc3[nH]2)CSC(CC2c3ccccc3-c3ccccc32)=N1 (racemic)

Ki [1]: 76 nM
Structure (SMILES): O=C(N[C@H](Cc1nc2cc(F)ccc2[nH]1)C(=O)O)c1cc2ccccc2s1

Ki [1]: 10000 nM
Structure (SMILES): O=C(NC(Cc1cc2ccccc2o1)C(=O)O)c1ccc2ccccc2c1 (centres undefined)

Ki [1]: 173 nM
Structure (SMILES): O=C(N[C@H](Cc1nc2cc(Cl)ccc2[nH]1)C(=O)O)c1ccc2ccccc2c1

Ki [1]: 80 nM
Structure (SMILES): O=C(N[C@H](Cc1nc2cc(F)ccc2[nH]1)C(=O)O)c1ccc2ccccc2c1

Ki [1]: 75 nM | solubility [2]: > 100 µg/mL | logP [3]: 3.5 | pKa [4]: 3.9
Structure (SMILES): O=C(CCc1c(Cl)cccc1Cl)N[C@H](Cc1cc2ccc(F)cc2[nH]1)C(=O)O

Ki [1]: 1360 nM | IC50 (HT-29 [5]): 27000 nM
Structure (SMILES): O=C(O)C1(Cc2cc3ccc(F)cc3[nH]2)CSC(c2ccc3ccccc3c2)=N1 (racemic)
Activity (HT-29 [6]): 10.2% | Activity (HT-29 [7]): 18.7% | Activity (HT-29 [8]): 71.1% | Activity (HT-29 [9]): 5% | Activity (HT-29 [10]): Active

Ki [1]: 400 nM | solubility [2]: 106 µg/mL (≈ 272 µM) | logP [3]: 2.49 | pKa [4]: 3.91
Structure (SMILES): O=C(Cc1cccc2ccccc12)N[C@H](Cc1cc2ccc(F)cc2[nH]1)C(=O)O

Ki [1]: 189 nM
Structure (SMILES): O=C(N[C@H](Cc1nc2cc(Cl)ccc2[nH]1)C(=O)O)c1cc2ccccc2s1

Ki [1]: 424 nM
Structure (SMILES): Cc1ccc2[nH]c(C[C@@H](NC(=O)c3cc4ccccc4s3)C(=O)O)nc2c1

Ki [1]: 46000 nM
Structure (SMILES): O=C(N[C@H](Cc1nc2ccccc2s1)C(=O)O)c1ccc2ccccc2c1

Ki [1]: 1000 nM
Structure (SMILES): O=C(NC(Cc1nc2ccccc2[nH]1)C(=O)O)c1ccc2ccccc2c1 (racemic)

Ki [1]: 1900 nM
Structure (SMILES): O=C(NC(Cc1cc2ccccc2[nH]1)C(=O)O)c1ccc2ccccc2c1 (centres undefined)

Ki [1]: 196 nM | IC50 (HT-29 [5]): 4600 nM
Structure (SMILES): O=C(O)C1(Cc2cc3ccc(F)cc3[nH]2)CSC(CCc2c(Cl)cccc2Cl)=N1 (racemic)
